Test results as given in patent publication US8013006B2.
Like-named read-outs stand apart in the source and are kept apart here.

Key:
HCV replicon = experiment: microbe, parasite or virus in culture; assay type: cell-based
[1] = Hepatitis C virus, 48 h, read-out: Replicon IC5Os μM
[2] = bicistronic HCV replicon, determined by firefly luciferase signal, cells cultured with compound for 2 days, read-out: Replicon IC5Os

Row | Structure (SMILES) | IC50 (HCV replicon; [1]) [µM] | IC50 (HCV replicon; [2]) [µM] | other results
1 | CCOc1ccc2c(C#N)c(-c3ccc(N(C)S(C)(=O)=O)cc3)n(C)c2c1 |  |  | melting point: 203 to 205 °C
2 | CCCOC(=O)Nc1ccc(-c2c(C#N)c3ccc(OC(F)F)cc3n2CC2CC2)cc1 |  |  | melting point: 125 to 126 °C
3 | CCn1c(-c2ccc(NC(=O)COC)cc2)c(C#N)c2ccc(OC(C)C)cc21 |  |  | melting point: 169 to 173 °C
4 | CCn1c(-c2ccc3c(c2)OCO3)c(C#N)c2ccc(OC)cc21 [Compound 22] | 0.5 to 2 |  | melting point: 146 to 149 °C
5 | CCn1c(NC(=O)c2cccc(C)c2)c(C#N)c2ccc(OC)cc21 [Compound 23] | < 0.5 |  | melting point: 234 to 235 °C
6 | CCn1c(NC(C)=O)c(C#N)c2ccc([N+](=O)[O-])cc21 [Compound 25, N-(3-cyano-1-ethyl-6-nitro-1H-indol-2-yl)acetamide] | > 2 |  | melting point: 291 to 293 °C
7 | COc1ccc(-n2cc(C(C)=O)c3ccc(OC)cc32)cc1 [Compound 48] | 0.5 to 2 |  | melting point: 138 to 142 °C
8 | CCn1c(C#Cc2ccc(N)cc2)c(C#N)c2ccc(OC)cc21 [Compound 69] | 0.5 to 2 |  | melting point: 163 to 166 °C
9 | CCn1c(-c2ccc(NC(=O)C3CC3)cc2)c(C#N)c2ccc(OC)cc21 [Compound 81] | < 0.5 |  | melting point: 209 to 211 °C
10 | CCC(=O)Nc1ccc(C#Cc2c(C#N)c3ccc(OC)cc3n2CC)cc1 [Compound 82] | 0.5 to 2 |  | melting point: 223 to 228 °C
11 | CCCn1c(-c2ccc(NS(=O)(=O)CC)cc2)c(C#N)c2ccc(OC)cc21 [Compound 85] | < 0.5 |  | melting point: 163 to 165 °C
12 | CCS(=O)(=O)Nc1ccc(-c2c(C#N)c3ccc(OC)cc3n2C2CCC2)cc1 [Compound 86] | < 0.5 |  | melting point: 158 to 160 °C
13 | CCn1c(-c2ccc(NS(=O)(=O)C(C)C)cc2)c(C#N)c2ccc(OC)cc21 [Compound 88] | 0.5 to 2 |  | melting point: 209 to 213 °C
14 | CCn1c(C#Cc2ccccc2)c(C#N)c2ccc(C(N)=O)cc21 [Compound 94] | 0.5 to 2 |  | melting point: 262 to 265 °C
15 | CCn1c(C#Cc2cccc(OC)c2)c(C#N)c2ccc(C(N)=O)cc21 [Compound 95] | 0.5 to 2 |  | melting point: 248 to 251 °C
16 | CCn1c(C#Cc2ccc(N)cc2)c(C#N)c2ccc(C(N)=O)cc21 [Compound 96] | 0.5 to 2 |  | melting point: 243 to 250 °C
17 | COc1ccc(-n2cc(C#N)c3ccc(Cl)cc32)cc1 [Compound 119] | 0.5 to 2 |  | melting point: 126 to 128 °C
18 | CCn1c(C#Cc2ccc(NS(=O)(=O)CC)cc2)c(C#N)c2ccc(OC)cc21 [Compound 131] | 0.5 to 2 |  | melting point: 199 to 204 °C
19 | CCn1c(C#Cc2ccc(NS(=O)(=O)C(C)C)cc2)c(C#N)c2ccc(OC)cc21 [Compound 132] | 0.5 to 2 |  | melting point: 209 to 212 °C
20 | CCn1c(C#Cc2ccc(CNS(=O)(=O)CC)cc2)c(C#N)c2ccc(OC)cc21 [Compound 157, Ethanesulfonic acid [4-(3-cyano-1-ethyl-6-methoxy-1H-indol-2-ylethynyl)-phenyl]methyl amide] |  |  | melting point: 149 to 153 °C
21 | CCn1c(-c2ccc(CNS(=O)(=O)CCN3CCOCC3)cc2)c(C#N)c2ccc(OC)cc21 [Compound 668, 2-morpholin-4-yl-ethanesulfonic acid [4-(3-cyano-1-ethyl-6-methoxy-1H-indol-2-yl)-phenyl]methyl amide] |  |  | melting point: 171 to 174 °C
22 | CCn1c(-c2ccc(NC(=O)C3CCC3)cc2)c(C#N)c2ccc(OC(C)C)cc21 [Compound 760] |  |  | IC50 (HCV replicon; Hepatitis C virus, 48 h, read-out: Replicon IC5Os): < 0.5 µM
23 | CCn1c(-c2ccc(NC(=O)c3ccc4nonc4c3)cc2)c(C#N)c2cc(OC)ccc21 [Compound 765] |  | 0.5 to 2 | 
24 | CCS(=O)(=O)N(C(C)=O)c1ccc(-c2cc3ccc(OC)cc3n2C(=O)OC(C)(C)C)cc1 [Compound 769] |  | > 2 | 
25 | CCn1c(-c2cccc(N3CCNC3=O)c2)c(C#N)c2ccc(OC)cc21 [Compound 770] |  | > 2 | 

Row | Structure (SMILES) | IC50 (HCV replicon; [1]) [µM] | IC50 (HCV replicon; [2]) [µM] | other results
26 | CCCn1c(-c2ccc(N3CCCS3(=O)=O)cc2)c(C#N)c2ccc(OCCOC(C)=O)cc21 [Compound 775] |  | 0.5 to 2 | 
27 | CCOc1ccc2c(C#N)c(-c3ccc(N4CCNC4=O)cc3)n(CC)c2c1 [Compound 778] |  | < 0.5 | 
28 | CCCn1c(-c2cccc(N3CCCS3(=O)=O)c2)c(C#N)c2ccc(OC)cc21 [Compound 783] |  | > 2 | 
29 | CCn1c(N2CCC(NC(=O)OC(C)(C)C)CC2)c(C#N)c2ccc(C(F)(F)F)cc21 [Compound 786] |  | > 2 | 
30 | COC(=O)Nc1cccc(-c2c(C#N)c3ccc(OC)cc3n2Cc2ccccc2)c1 [Compound 787] |  | > 2 | 
31 | CCCCOC(=O)Nc1cccc(-c2c(C#N)c3ccc(OC)cc3n2Cc2ccccc2)c1 [Compound 788] |  | > 2 | 
32 | CCn1c(-c2ccc(NS(=O)(=O)C(C)C)cc2)c(C#N)c2cc(OC)ccc21 [Compound 790] | < 0.5 |  | 
33 | CCn1c(-c2ccc(N)cc2)c(C#N)c2cc(O)ccc21 [Compound 797] |  | 0.5 to 2 | 
34 | CCn1c(-c2ccc(NC(=O)c3cc(C)on3)cc2)c(C#N)c2ccc(OC(C)C)cc21 [Compound 798] |  | > 2 | 
35 | CCCC(=O)Nc1ccc(-c2c(C#N)c3ccc(OC)cc3n2CC)cc1 [Compound 799] | < 0.5 |  | 
36 | CCn1c(-c2ccc(NC(=O)c3ccco3)cc2)c(C#N)c2ccc(OC)cc21 [Compound 803] |  | > 2 | 
37 | CCn1c(-c2ccc(NC(=O)c3cc(C)on3)cc2)c(C#N)c2ccc(OC)cc21 [Compound 804] |  | > 2 | 
38 | N#Cc1c(-c2ccc(N3CCCC3=O)cc2)n(CC2CC2)c2cc(OC(F)F)ccc12 [Compound 806] |  | 0.5 to 2 | 
39 | CCCn1c(-c2ccc(N3CCCC3=O)cc2)c(C#N)c2ccc(OC(F)F)cc21 [Compound 808] |  | 0.5 to 2 | 
40 | CC(C)n1c(-c2ccc(N3CCCC3=O)cc2)c(C#N)c2ccc(OC(F)F)cc21 [Compound 809] |  | 0.5 to 2 | 
41 | N#Cc1c(-c2ccc(N3CCCC3=O)cc2)n(C2CCC2)c2cc(OC(F)F)ccc12 [Compound 810] |  | 0.5 to 2 | 
42 | N#Cc1c(-c2ccc(N)cc2)n(C2CCC2)c2cc(OC(F)F)ccc12 [Compound 811] |  | > 2 | 
43 | CCCS(=O)(=O)Nc1ccc(-c2c(C#N)c3ccc(OC(F)F)cc3n2C2CCC2)cc1 [Compound 812] |  | 0.5 to 2 | 
44 | N#Cc1c(-c2ccc(NS(=O)(=O)C3CC3)cc2)n(C2CCC2)c2cc(OC(F)F)ccc12 [Compound 813] |  | < 0.5 | 
45 | CCCNC(=O)Nc1cccc(-c2c(C#N)c3ccc(OC)cc3n2Cc2ccccc2)c1 [Compound 817] |  | > 2 | 
46 | CCn1c(-c2cc(N3CCOC3=O)ccc2F)c(C#N)c2ccc(OC(C)C)cc21 [Compound 820] |  | 0.5 to 2 | 
47 | CCn1c(-c2ccc(F)c(N3CCOC3=O)c2)c(C#N)c2ccc(OC(C)C)cc21 [Compound 821] |  | > 2 | 
48 | COCCOC(=O)Nc1ccc(-c2c(C#N)c3ccc(OC(F)F)cc3n2C2CCC2)cc1 [Compound 823] |  | > 2 | 
49 | CCCn1c(-c2ccc(NC(=O)OC(C)C)cc2)c(C#N)c2ccc(OC(F)F)cc21 [Compound 824] |  | > 2 | 
50 | CCCn1c(-c2ccc(NC(=O)OCCOC)cc2)c(C#N)c2ccc(OC(F)F)cc21 [Compound 825] |  | > 2 | 

Row | Structure (SMILES) | IC50 (HCV replicon; [1]) [µM] | IC50 (HCV replicon; [2]) [µM] | other results
51 | CCCn1c(-c2ccc(NC(=O)OCCF)cc2)c(C#N)c2ccc(OC(F)F)cc21 [Compound 826] |  | 0.5 to 2 | 
52 | N#Cc1c(-c2ccc(N3CCCS3(=O)=O)cc2)[nH]c2cc(OC(F)(F)F)ccc12 [Compound 829] |  | 0.5 to 2 | 
53 | CCn1c(-c2ccc(OC(F)F)cc2)c(C#N)c2ccc(NS(=O)(=O)CC)cc21 [Compound 830] |  | 0.5 to 2 | 
54 | CCCS(=O)(=O)Nc1ccc2c(C#N)c(-c3ccc(OCC)cc3)n(CC)c2c1 [Compound 836] |  | > 2 | 
55 | CCOc1ccc(-c2c(C#N)c3ccc(NS(=O)(=O)C4CC4)cc3n2CC)cc1 [Compound 837] |  | > 2 | 
56 | CCn1c(-c2ccc(N(C)S(=O)(=O)C3CC3)cc2)c(C#N)c2ccc(OCCF)cc21 [Compound 840] |  | > 2 | 
57 | CCCS(=O)(=O)N1CCN(c2c(C#N)c3ccc(C(F)(F)F)cc3n2CC)CC1 [Compound 841] |  | > 2 | 
58 | CCn1c(N2CCN(S(=O)(=O)c3ccccc3)CC2)c(C#N)c2ccc(C(F)(F)F)cc21 [Compound 843] |  | > 2 | 
59 | CCCn1c(-c2ccc(NC(=O)NC(C)C)cc2)c(C#N)c2ccc(OC)cc21 [Compound 846] |  | 0.5 to 2 | 
60 | CCCCNC(=O)Nc1ccc(-c2c(C#N)c3ccc(OC)cc3n2CCC)cc1 [Compound 847] |  | 0.5 to 2 | 
61 | CCCn1c(-c2ccc(NC(=O)OC)cc2)c(C#N)c2ccc(OC)cc21 [Compound 849] |  | 0.5 to 2 | 
62 | CCCn1c(-c2ccc(N(CC)S(=O)(=O)CC)cc2)c(C#N)c2ccc(OC)cc21 [Compound 852] |  | 0.5 to 2 | 
63 | CCn1c(-c2ccc(C(=O)N3CC3)cc2)c(C#N)c2ccc(OC)cc21 [Compound 853] |  | < 0.5 | 
64 | CCn1c(-c2ccc(NC(=O)C3CC3)cc2)c(C#N)c2ccccc21 [Compound 854] | 0.5 to 2 |  | 
65 | CCn1c(-c2ccc(NC(=O)C(C)C)cc2)c(C#N)c2ccccc21 [Compound 855] | 0.5 to 2 |  | 
66 | CCn1c(-c2ccc(NC(=O)CCl)cc2)c(C#N)c2cc(OC)ccc21 [Compound 856] |  | > 2 | 
67 | CCn1c(-c2ccc(NC(=O)COC)cc2)c(C#N)c2cc(OC)ccc21 [Compound 857] |  | 0.5 to 2 | 
68 | CCn1c(-c2ccc(NC(=O)C(C)C)cc2)c(C#N)c2cc(OC)ccc21 [Compound 858] | < 0.5 |  | 
69 | CCn1c(-c2ccc(C(=O)NC)cc2)c(C#N)c2cc(OC)ccc21 [Compound 860] |  | 0.5 to 2 | 
70 | CCn1c(-c2ccc(C(=O)N3CC3)cc2)c(C#N)c2cc(OC)ccc21 [Compound 861] | 0.5 to 2 |  | 
71 | CCn1c(-c2ccc(C(=O)N3CCC3)cc2)c(C#N)c2cc(OC)ccc21 [Compound 862] |  | > 2 | 
72 | CCn1c(-c2ccc(N3CCOC3=O)cc2)c(C#N)c2ccc(OC)cc21 [Compound 863] | 0.5 to 2 |  | 
73 | CCn1c(-c2cccc(N3CCOC3=O)c2)c(C#N)c2ccc(OC)cc21 [Compound 864] |  | 0.5 to 2 | 
74 | CCCn1c(-c2ccc(N3CCCS3(=O)=O)cc2)c(C=O)c2ccc(OC)cc21 [Compound 865] |  | > 2 | 
